From ChEMBL document CHEMBL6153094, “Rationally designed highly amphipathic antimicrobial peptides demonstrating superior bacterial selectivity relative to the corresponding α-helix peptide” (Eur J Med Chem, 2025)
Activity calls are given as the source filed them. The calls are words filed in the database; no cut-off is given here.

Assays:
Acinetobacter baumannii = test: Antimicrobial activity against Acinetobacter baumannii ATCC 19606 assessed as inhibition of visible bacterial growth incubated for 18 hrs by broth microdilution method; assay type: functional
Klebsiella pneumoniae [1] = test: Antimicrobial activity against Klebsiella pneumoniae ATCC 700603 assessed as inhibition of visible bacterial growth incubated for 18 hrs by broth microdilution method; assay type: functional
Staphylococcus aureus [2] = test: Antimicrobial activity against Staphylococcus aureus ATCC 25923 assessed as inhibition of visible bacterial growth incubated for 18 hrs by broth-dilution method; assay type: functional
Staphylococcus aureus [3] = test: Antimicrobial activity against methicillin-drug resistant Staphylococcus aureus ATCC 33591 assessed as concentration required to eliminate 90% bacteria incubated for 18 hrs by broth-microdilution method; assay type: functional
Staphylococcus aureus [4] = test: Antimicrobial activity against methicillin-drug resistant Staphylococcus aureus clinical isolate 54 assessed as concentration required to eliminate 90% bacteria incubated for 18 hrs by broth-microdilution method; assay type: functional
Escherichia coli = test: Antimicrobial activity against multi-drug resistant Escherichia coli clinical isolate 804 assessed as concentration required to eliminate 90% bacteria incubated for 18 hrs by broth-microdilution method; assay type: functional
Pseudomonas aeruginosa [5] = test: Antimicrobial activity against multi-drug resistant Pseudomonas aeruginosa clinical isolate 119 assessed as concentration required to eliminate 90% bacteria incubated for 18 hrs by broth-microdilution method; assay type: functional
Pseudomonas aeruginosa [6] = test: Antimicrobial activity against multi-drug resistant Pseudomonas aeruginosa clinical isolate 124 assessed as concentration required to eliminate 90% bacteria incubated for 18 hrs by broth-microdilution method; assay type: functional
[7] = Hemolytic activity in mouse red blood cells assessed as hemolysis at 256 uM incubated for 1 hrs by absorbance based assay relative to control; assay type: toxicity, cell-based, Erythrocyte; conditions: read-out: Activity
Staphylococcus aureus [8] = test: Antibacterial activity against Staphylococcus aureus ATCC 25923 assessed as inhibition of bacterial growth at 2 times of MIC incubated for 18 hrs in presence of 2000 microg/ml of chymotrypsin by absorbance based assay; assay type: functional, organism-based
Staphylococcus aureus [9] = test: Antibacterial activity against Staphylococcus aureus ATCC 25923 incubated for 18 hrs in presence of ZnCl2 by Mueller-Hinton broth based assay; assay type: functional, organism-based
Pseudomonas aeruginosa [10] = test: Antibacterial activity against Pseudomonas aeruginosa ATCC 27853 incubated for 18 hrs in presence of 10% serum by broth microdilution method; assay type: functional, organism-based
Staphylococcus aureus [11] = test: Antibacterial activity against Staphylococcus aureus ATCC 25923 assessed as fold change in MIC incubated for 18 hrs in presence of 5% serum by broth microdilution method; assay type: functional
Pseudomonas aeruginosa [12] = test: Antibiofilm activity in Pseudomonas aeruginosa ATCC 27853 assessed as inhibition of biofilm formation at 1 times of MIC incubated for 24 hrs by crystal violet staining based analysis relative to control; assay type: functional
Staphylococcus aureus [13] = test: Antibiofilm activity in Staphylococcus aureus ATCC 25923 assessed as inhibition of biofilm formation at 1 times of MIC incubated for 24 hrs by crystal violet staining based analysis relative to control; assay type: functional
Staphylococcus aureus [14] = test: Antibiofilm activity in Staphylococcus aureus ATCC 25923 assessed as inhibition of biofilm formation at 4 times of MIC incubated for 24 hrs by crystal violet staining based analysis relative to control; assay type: functional
Pseudomonas aeruginosa [15] = test: Antimicrobial activity against gentamicin-resistant Pseudomonas aeruginosa ATCC 27853 assessed as inhibition of visible bacterial growth incubated for 18 hrs by broth microdilution method; assay type: functional
Staphylococcus aureus [16] = test: Synergistic antimicrobial activity against gentamicin-resistant Staphylococcus aureus ATCC 25923 assessed as fractional inhibitory concentration index incubated for 18 hrs in presence of gentamicin by checkerboard microdilution method; assay type: functional
Pseudomonas aeruginosa [17] = test: Bactericidal activity against Pseudomonas aeruginosa ATCC 27853 assessed as bacterial eradication at 2 times of MIC measured within 30 mins by time-kill kinetics assay; assay type: functional, organism-based
Staphylococcus aureus [18] = test: Bactericidal activity against Staphylococcus aureus ATCC 25923 assessed as bacterial eradication at 2 times of MIC measured after 90 mins by time-kill kinetics assay; assay type: functional, organism-based
Cell membrane [19] = test: Disruption of outer membrane integrity in Pseudomonas aeruginosa ATCC 27853 assessed as increase in fluorescence intensity at 1 times of MIC measured for 12 mins by NPN uptake assay; assay type: subcellular
DNA = test: Binding affinity to Pseudomonas aeruginosa ATCC 27853 DNA at 8 times of MIC measured after 30 mins by agarose gel electrophoresis; assay type: nucleic-acid assay
Pseudomonas aeruginosa [20] = test: Induction of morphological changes in Pseudomonas aeruginosa ATCC 27853 assessed as content leakage at 2 times of MIC incubated for 30 to 120 mins by SEM analysis; assay type: functional, organism-based; conditions: time 30-120 min
Staphylococcus aureus [21] = test: Induction of morphological changes in Staphylococcus aureus ATCC 25923 assessed as cellular fragmentation at 2 times of MIC incubated for 30 to 120 mins by SEM analysis; assay type: functional, organism-based; conditions: time 30-120 min
Staphylococcus aureus [22] = test: Induction of morphological changes in Staphylococcus aureus ATCC 25923 assessed as blister formation at 2 times of MIC incubated for 30 to 120 mins by SEM analysis; assay type: functional, organism-based; conditions: time 30-120 min
Cell membrane [23] = test: Disruption of membrane integrity in Staphylococcus aureus ATCC 25923 at 2 times of MIC incubated for 30 to 120 mins by SEM analysis; assay type: subcellular; conditions: time 30-120 min
[24] = Toxicity in male Balb/c mouse assessed as lethal dose administered intraperitoneally for 7 days; conditions: in vivo, route ip, time 7 day
Klebsiella pneumoniae [25] = test: Antibacterial activity against Klebsiella pneumoniae ATCC 700603 infected in male Balb/c mouse model of pneumonia assessed as decrease in decrease in IL-1beta level in lung at 2.5 to 10 mg/kg, ip administered at 4 and 12 hrs post-infected and measured after 24 hrs by ELISA; assay type: functional, organism-based; conditions: dose 2.5-10 mg/kg, time 20.0 hrs
Staphylococcus aureus [26] = test: (§1) Antibacterial activity against methicillin-resistant Staphylococcus aureus ATCC 33591 infected in male Balb/c mouse model of full thickness skin wound assessed as reduction in bacterial load in skin at 1 mg/ml pre-infected with bacteria for 1 hrs followed by compound administration at 1,12 and 36 hrs post infection and measured 60 hrs post infection by agar plate method; assay type: functional, organism-based; conditions: time 59.0 hrs
Staphylococcus aureus [27] = test: as §1, with “number of inflammatory cells” for “bacterial load”, “after 10 days” for “60 hrs post infection”, “H and E staining based analysis” for “agar plate method”; assay type: functional, organism-based; conditions: time 10.0 day

## H-RRWFRRWRRWFR-NH2
Acinetobacter baumannii
  MIC: 8 µM
Klebsiella pneumoniae [1]
  MIC: 4 µM
Staphylococcus aureus [2]
  MIC: 2 µM
Staphylococcus aureus [3]
  EC90: 2260 nM
Staphylococcus aureus [4]
  EC90: 3420 nM
Escherichia coli
  EC90: 5420 nM
Pseudomonas aeruginosa [5]
  EC90: 566 nM
Pseudomonas aeruginosa [6]
  EC90: 780 nM
[7]
  hemolysis at 1 h, 256 µM: < 10%
Staphylococcus aureus [8]
  Activity: Not active; Entire Loss Of Activity Observed
Staphylococcus aureus [9]
  Activity: Active
Pseudomonas aeruginosa [10]
  Activity: inactive
Staphylococcus aureus [11]
  fold change (FC): 128
Pseudomonas aeruginosa [12]
  inhibition (INH): >90%
Staphylococcus aureus [13]
  inhibition (INH): ~50%
Staphylococcus aureus [14]
  inhibition (INH): ~75%
Pseudomonas aeruginosa [15]
  MIC: 2 µM
Staphylococcus aureus [16]
  fractional inhibitory concentration index (FICI): 0.25
Pseudomonas aeruginosa [17]
  Activity: Active
Staphylococcus aureus [18]
  Activity: Active
Cell membrane [19]
  Activity: Active
DNA
  Activity: Active
Pseudomonas aeruginosa [20]
  Activity: Active
Staphylococcus aureus [21]
  Activity: Active
Staphylococcus aureus [22]
  Activity: Active
Cell membrane [23]
  Activity: Active
[24]
  LD50 at 168 h: 89.9 mg/kg
Klebsiella pneumoniae [25]
  Activity: Active
Staphylococcus aureus [26]
  Activity: Active
Staphylococcus aureus [27]
  Activity: Active
